Assay results as given in patent EP4745137A1 (Gluetacs Therapeutics (Shanghai) Co., Ltd., priority 2023, dated 2025).

What was measured:
SW620 = assay: Tumor cell proliferation inhibition (CellTiter-Meiluncell Luminescent Cell Viability Assay), SW620; settings: Homo sapiens, SW-620, 96 h, read-out: inhibitory activity (IC50, nM) against tumor cells proliferation, SW620
Experimental: (§1) The tumor cells used herein were cultured in a cell culture medium listed in table 2 at 37°C in an incubator with 5% CO2. Prior to experimentation, all cell lines used were correctly identified by STR profiling, and tested negative for mycoplasma contamination using a mycoplasma detection kit through routine screenings.
(§2) On the following day, the test compounds of the present disclosure were subjected to serial dilution. […] Subsequently, 0.5 µL of the test compound dilution was transferred into the 96-well plate containing the cells, with each well containing 100 µL of cell culture medium. […] Into the 96-well plate, the diluted test compounds and corresponding detection reagents were added, resulting in final test compound concentrations of 500 nM and 10 nM, respectively. The experimental procedure is described below using the diluted 2 µM test compound as an example.
(§3) After the cells were treated with the compounds of the present disclosure for a specified period (the treatment durations were shown in Table 3), the cell viability assay reagent was added to the culture medium according to the kit's instructions to determine cell viability. […] All controls were treated using the same procedure as the compounds of the present disclosure. The growth inhibition curves for the compounds of the present disclosure were plotted using Prism GraphPad software, and the IC50 values were calculated therefrom.

CK1α = target: T1, CK1α (Homo sapiens, UniProt P48729+Q96SW2); assay: Western-blot assay of substrate protein degradation in hPBMCs, CK1α; format: cell-based; settings: 24 hours of compound treatment, compounds tested at 50 nM and 500 nM (concentration of the table not stated)
T1 construct: endogenous in cells; host or cells: hPBMCs (Milecell Biotechnologies)

IKZF2 = target: T2, IKZF2 (Homo sapiens, UniProt Q96SW2+Q9UKS7); assay: Western-blot assay of substrate protein degradation in hPBMCs, IKZF2; format: cell-based; settings: 24 hours of compound treatment, compounds tested at 50 nM and 500 nM (concentration of the table not stated)
T2 construct: endogenous in cells; host or cells: hPBMCs (Milecell Biotechnologies)

GSPT1 = target: T3, GSPT1 (Homo sapiens, UniProt P15170+Q96SW2); assay: Western-blot assay of substrate protein degradation in hPBMCs, GSPT1; format: cell-based; settings: 24 hours of compound treatment, compounds tested at 50 nM and 500 nM (concentration of the table not stated)
T3 construct: endogenous in cells; host or cells: hPBMCs (Milecell Biotechnologies)

CAL-62 = assay: Tumor cell proliferation inhibition (CellTiter-Meiluncell Luminescent Cell Viability Assay), CAL-62; settings: Homo sapiens, CAL-62, 96 h, read-out: inhibitory activity (IC50, nM) against tumor cells proliferation, CAL-62
IKZF1 = target: T4, IKZF1 (Homo sapiens, UniProt Q13422+Q96SW2); assay: Western-blot assay of substrate protein degradation in hPBMCs, IKZF1; format: cell-based; settings: 24 hours of compound treatment, compounds tested at 50 nM and 500 nM (concentration of the table not stated)
T4 construct: endogenous in cells; host or cells: hPBMCs (Milecell Biotechnologies)

MGC803 = assay: Tumor cell proliferation inhibition (CellTiter-Meiluncell Luminescent Cell Viability Assay), MGC803; settings: Homo sapiens, MGC-803, 96 h, read-out: inhibitory activity (IC50, nM) against tumor cells proliferation, MGC803
WEE1 = target: T5, WEE1 (Homo sapiens, UniProt P30291+Q96SW2); assay: Western-blot assay of substrate protein degradation in hPBMCs, WEE1; format: cell-based; settings: 24 hours of compound treatment, compounds tested at 50 nM and 500 nM (concentration of the table not stated)
T5 construct: endogenous in cells; host or cells: hPBMCs (Milecell Biotechnologies)

[1] = target: T6, human Cereblon WT GST-tagged protein (Homo sapiens, UniProt Q96SW2); assay: CRBN-binding affinity by HTRF (CEREBLON BINDING kit); settings: HTRF inhibitory activity, CEREBLON BINDING kit; read-out: HTRF IC50
T6 construct: purchased CISBIO 64BDCRBNPEH

TMD8 = assay: Tumor cell proliferation inhibition (CellTiter-Meiluncell Luminescent Cell Viability Assay), TMD8; settings: Homo sapiens, TMD8, 96 h, read-out: inhibitory activity (IC50, nM) against tumor cells proliferation, TMD8
Experimental: as §1, §2, §3

Vcap = assay: Tumor cell proliferation inhibition (CellTiter-Meiluncell Luminescent Cell Viability Assay), Vcap; settings: Homo sapiens, 96 h, read-out: inhibitory activity (IC50, nM) against tumor cells proliferation, Vcap
Experimental: as §1, §2, §3

IKZF3 = target: T7, IKZF3 (Homo sapiens, UniProt Q96SW2+Q9UKT9); assay: Western-blot assay of substrate protein degradation in hPBMCs, IKZF3; format: cell-based; settings: 24 hours of compound treatment, compounds tested at 50 nM and 500 nM (concentration of the table not stated)
T7 construct: endogenous in cells; host or cells: hPBMCs (Milecell Biotechnologies)

Jurkat = assay: Tumor cell proliferation inhibition (CellTiter-Meiluncell Luminescent Cell Viability Assay), Jurkat; settings: Homo sapiens, 96 h, read-out: inhibitory activity (IC50, nM) against tumor cells proliferation, Jurkat
Experimental: as §1, §2, §3

CCRF-CEM = assay: Tumor cell proliferation inhibition (CellTiter-Meiluncell Luminescent Cell Viability Assay), CCRF-CEM; settings: Homo sapiens, 96 h, read-out: inhibitory activity (IC50, nM) against tumor cells proliferation, CCRF-CEM
NCI-H1975 = assay: Tumor cell proliferation inhibition (CellTiter-Meiluncell Luminescent Cell Viability Assay), NCI-H1975; settings: Homo sapiens, NCI-H1975, 96 h, read-out: inhibitory activity (IC50, nM) against tumor cells proliferation, H1975
[2] = system: Human acute T lymphocytic leukemia cells (Molt-4); assay: Tumor cell proliferation inhibition (CellTiter-Meiluncell Luminescent Cell Viability Assay), Molt-4; settings: MOLT-4, 96 h, read-out: inhibitory activity (IC50, nM) against tumor cells proliferation, Molt 4
MM.1R = assay: Tumor cell proliferation inhibition (CellTiter-Meiluncell Luminescent Cell Viability Assay), MM.1R; settings: Homo sapiens, 96 h, read-out: inhibitory activity (IC50, nM) against tumor cells proliferation, MM.1R
[3] = system: Human breast cancer cells (MDA-MB-231); assay: Tumor cell proliferation inhibition (CellTiter-Meiluncell Luminescent Cell Viability Assay), MDA-MB-231; settings: MDA-MB-231, 96 h, read-out: inhibitory activity (IC50, nM) against tumor cells proliferation, MDA-MB-231

T4 sequence (Q13422 whole entry): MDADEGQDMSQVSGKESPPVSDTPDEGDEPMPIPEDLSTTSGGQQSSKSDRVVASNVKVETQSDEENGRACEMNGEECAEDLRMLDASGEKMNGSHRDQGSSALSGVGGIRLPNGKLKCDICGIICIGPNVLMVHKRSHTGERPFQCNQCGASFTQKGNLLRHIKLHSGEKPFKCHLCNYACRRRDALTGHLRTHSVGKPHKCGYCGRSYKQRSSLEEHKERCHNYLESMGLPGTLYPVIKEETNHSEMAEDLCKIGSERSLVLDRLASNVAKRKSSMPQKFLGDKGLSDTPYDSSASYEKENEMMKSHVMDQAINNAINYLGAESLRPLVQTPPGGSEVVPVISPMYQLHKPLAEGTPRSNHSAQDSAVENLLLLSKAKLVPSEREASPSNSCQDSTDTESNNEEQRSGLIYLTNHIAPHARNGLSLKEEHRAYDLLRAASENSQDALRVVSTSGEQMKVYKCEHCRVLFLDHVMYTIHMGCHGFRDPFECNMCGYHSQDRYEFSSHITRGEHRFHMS
T4 sequence (Q96SW2 whole entry): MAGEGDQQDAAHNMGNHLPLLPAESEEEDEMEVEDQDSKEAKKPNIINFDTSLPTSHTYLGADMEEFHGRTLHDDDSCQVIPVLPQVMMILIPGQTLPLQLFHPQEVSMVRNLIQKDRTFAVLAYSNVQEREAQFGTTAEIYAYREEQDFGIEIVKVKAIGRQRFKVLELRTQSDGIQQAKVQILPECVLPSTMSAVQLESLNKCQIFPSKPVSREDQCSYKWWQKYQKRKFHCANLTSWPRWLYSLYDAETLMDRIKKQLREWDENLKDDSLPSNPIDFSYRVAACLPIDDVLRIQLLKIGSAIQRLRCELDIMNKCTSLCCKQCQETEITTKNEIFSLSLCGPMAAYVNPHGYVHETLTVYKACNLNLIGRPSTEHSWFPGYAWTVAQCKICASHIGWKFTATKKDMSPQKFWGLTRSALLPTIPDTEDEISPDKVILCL
T4 sequence (Q16531 whole entry partner): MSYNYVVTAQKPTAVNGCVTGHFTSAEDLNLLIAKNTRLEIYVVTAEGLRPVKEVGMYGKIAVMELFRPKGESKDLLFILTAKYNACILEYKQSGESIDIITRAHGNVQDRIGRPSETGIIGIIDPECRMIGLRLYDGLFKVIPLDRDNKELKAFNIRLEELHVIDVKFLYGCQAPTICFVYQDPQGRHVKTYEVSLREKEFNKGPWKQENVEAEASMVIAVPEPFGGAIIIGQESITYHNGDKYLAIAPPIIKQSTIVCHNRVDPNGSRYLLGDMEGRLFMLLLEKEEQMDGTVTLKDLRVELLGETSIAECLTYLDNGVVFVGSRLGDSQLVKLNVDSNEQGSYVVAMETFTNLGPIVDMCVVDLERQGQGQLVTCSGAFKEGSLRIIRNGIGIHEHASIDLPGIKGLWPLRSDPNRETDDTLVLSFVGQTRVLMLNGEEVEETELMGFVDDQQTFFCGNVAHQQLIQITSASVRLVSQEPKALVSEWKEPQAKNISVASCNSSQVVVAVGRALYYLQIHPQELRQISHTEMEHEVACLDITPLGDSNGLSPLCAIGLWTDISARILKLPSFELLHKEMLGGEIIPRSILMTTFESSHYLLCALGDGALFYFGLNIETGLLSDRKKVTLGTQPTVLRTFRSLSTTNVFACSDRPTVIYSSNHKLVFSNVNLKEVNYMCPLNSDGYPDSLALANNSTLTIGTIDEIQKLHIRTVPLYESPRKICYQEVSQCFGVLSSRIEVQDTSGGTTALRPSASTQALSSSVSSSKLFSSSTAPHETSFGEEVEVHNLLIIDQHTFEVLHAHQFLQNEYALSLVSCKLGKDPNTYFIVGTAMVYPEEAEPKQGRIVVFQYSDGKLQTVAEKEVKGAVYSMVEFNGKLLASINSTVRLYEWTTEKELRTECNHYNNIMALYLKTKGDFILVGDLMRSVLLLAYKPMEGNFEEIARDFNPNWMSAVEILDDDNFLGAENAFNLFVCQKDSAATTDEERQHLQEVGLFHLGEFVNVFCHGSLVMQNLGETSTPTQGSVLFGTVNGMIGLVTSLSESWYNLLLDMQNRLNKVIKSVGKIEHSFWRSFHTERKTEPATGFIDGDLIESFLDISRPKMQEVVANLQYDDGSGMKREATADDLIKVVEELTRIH
T3 sequence (P15170 whole entry): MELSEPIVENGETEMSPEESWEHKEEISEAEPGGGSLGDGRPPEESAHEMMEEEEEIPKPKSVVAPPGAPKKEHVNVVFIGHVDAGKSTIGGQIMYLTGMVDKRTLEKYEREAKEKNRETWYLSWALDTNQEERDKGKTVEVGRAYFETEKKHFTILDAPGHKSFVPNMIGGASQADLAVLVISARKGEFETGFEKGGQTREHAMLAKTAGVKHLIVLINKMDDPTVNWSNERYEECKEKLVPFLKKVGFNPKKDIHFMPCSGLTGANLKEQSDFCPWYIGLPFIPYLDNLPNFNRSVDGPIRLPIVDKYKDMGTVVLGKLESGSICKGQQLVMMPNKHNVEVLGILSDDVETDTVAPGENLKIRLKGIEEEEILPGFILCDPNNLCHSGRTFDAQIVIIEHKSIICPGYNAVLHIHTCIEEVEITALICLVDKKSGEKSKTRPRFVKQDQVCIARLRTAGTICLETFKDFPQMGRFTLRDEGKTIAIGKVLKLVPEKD
T3 sequence (Q96SW2 whole entry): as the sequence (Q96SW2 whole entry) above
T3 sequence (Q16531 whole entry partner): as the sequence (Q16531 whole entry partner) above
T5 sequence (P30291 whole entry): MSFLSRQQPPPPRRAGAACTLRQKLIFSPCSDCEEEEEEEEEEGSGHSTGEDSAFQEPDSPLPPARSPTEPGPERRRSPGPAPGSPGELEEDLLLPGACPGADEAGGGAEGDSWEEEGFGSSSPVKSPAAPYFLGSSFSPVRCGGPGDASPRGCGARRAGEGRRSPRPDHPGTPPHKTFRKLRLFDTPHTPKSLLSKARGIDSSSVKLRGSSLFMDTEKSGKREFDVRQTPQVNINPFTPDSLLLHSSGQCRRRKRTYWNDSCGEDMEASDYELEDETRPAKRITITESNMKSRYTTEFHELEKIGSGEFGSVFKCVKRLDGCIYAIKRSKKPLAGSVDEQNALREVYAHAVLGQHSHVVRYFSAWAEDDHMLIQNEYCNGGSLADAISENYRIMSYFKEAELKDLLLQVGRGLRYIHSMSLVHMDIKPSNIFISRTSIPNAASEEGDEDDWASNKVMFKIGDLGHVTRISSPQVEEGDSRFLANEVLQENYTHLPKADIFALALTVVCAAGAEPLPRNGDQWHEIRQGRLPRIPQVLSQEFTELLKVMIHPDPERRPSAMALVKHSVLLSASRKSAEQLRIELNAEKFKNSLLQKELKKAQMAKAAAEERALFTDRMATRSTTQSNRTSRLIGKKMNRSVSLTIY
T5 sequence (Q96SW2 whole entry): as the sequence (Q96SW2 whole entry) above
T5 sequence (Q16531 whole entry partner): as the sequence (Q16531 whole entry partner) above
T6 sequence (Q96SW2 whole entry): as the sequence (Q96SW2 whole entry) above
T7 sequence (Q9UKT9 whole entry): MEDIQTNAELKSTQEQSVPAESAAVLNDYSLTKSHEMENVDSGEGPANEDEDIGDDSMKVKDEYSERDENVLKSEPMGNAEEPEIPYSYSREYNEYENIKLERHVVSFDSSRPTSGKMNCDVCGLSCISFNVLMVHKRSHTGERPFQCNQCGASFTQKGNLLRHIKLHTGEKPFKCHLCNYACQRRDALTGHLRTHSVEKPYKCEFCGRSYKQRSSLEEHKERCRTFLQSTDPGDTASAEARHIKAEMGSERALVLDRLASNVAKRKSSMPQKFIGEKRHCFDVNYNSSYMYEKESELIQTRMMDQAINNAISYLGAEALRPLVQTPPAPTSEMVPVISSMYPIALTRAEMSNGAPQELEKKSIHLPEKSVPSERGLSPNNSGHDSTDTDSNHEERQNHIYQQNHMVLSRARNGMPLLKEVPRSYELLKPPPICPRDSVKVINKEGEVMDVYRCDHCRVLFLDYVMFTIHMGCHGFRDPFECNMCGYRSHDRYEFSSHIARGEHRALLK
T7 sequence (Q96SW2 whole entry): as the sequence (Q96SW2 whole entry) above
T7 sequence (Q16531 whole entry partner): as the sequence (Q16531 whole entry partner) above
T1 sequence (P48729 whole entry): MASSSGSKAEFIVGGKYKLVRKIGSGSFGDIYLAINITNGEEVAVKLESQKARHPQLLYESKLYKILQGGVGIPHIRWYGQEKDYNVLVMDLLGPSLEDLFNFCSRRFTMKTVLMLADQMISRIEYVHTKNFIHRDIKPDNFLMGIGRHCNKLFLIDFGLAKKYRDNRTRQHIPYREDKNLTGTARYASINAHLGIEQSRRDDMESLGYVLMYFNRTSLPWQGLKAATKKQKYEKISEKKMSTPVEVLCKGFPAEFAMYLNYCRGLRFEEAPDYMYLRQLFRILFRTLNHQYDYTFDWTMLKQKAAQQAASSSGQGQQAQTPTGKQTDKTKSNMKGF
T1 sequence (Q96SW2 whole entry): as the sequence (Q96SW2 whole entry) above
T1 sequence (Q16531 whole entry partner): as the sequence (Q16531 whole entry partner) above

SMILES: O=C1CCC(N2Cc3cc(CN4CCN(c5cccc(Cl)c5Cl)CC4)ccc3C2=O)C(=O)N1 (centres unmarked) [GT-04201, 3-(5-((4-(2,3-dichlorophenyl)piperazin-1-yl)methyl)-1-oxoisoindolin-2-yl)piperidine-2,6-dione]
- IC50 (SW620): 50 to 100 nM
- CK1a substrate protein remaining % (CK1α): A (0% ≤ substrate protein remaining % ≤ 80%)
- IKZF2 substrate protein remaining % (IKZF2): A (0% ≤ substrate protein remaining % ≤ 80%)
- GSPT1 substrate protein remaining % (GSPT1): A (0% ≤ substrate protein remaining % ≤ 80%)
- IC50 (CAL-62): 1 to 5 nM
- IKZF 1 substrate protein remaining % (IKZF1): B (80%< substrate protein remaining %≤ 100%)
- IC50 (MGC803): 10 to 50 nM
- Weel substrate protein remaining % (WEE1): A (0% ≤ substrate protein remaining % ≤ 80%)
- IC50 [1]: 1000 to 1500 nM
- IC50 (TMD8): 10 to 50 nM
- IC50 (Vcap): 5 to 10 nM
- IKZF3 substrate protein remaining % (IKZF3): B (80%< substrate protein remaining %≤ 100%)
- IC50 (Jurkat): 1 to 5 nM
- IC50 (CCRF-CEM): 1 to 5 nM

SMILES: O=C1CCC(N2Cc3cc(CN4CCN(c5cccc6sccc56)CC4)ccc3C2=O)C(=O)N1 (centres unmarked) [GT-04202, 3-(5-((4-(benzo[b]thiophen-4-yl)piperazin-1-yl)methyl)-1-oxoisoindolin-2-yl)piperidine-2,6-dione]
- IC50 (SW620): 1 to 5 nM
- CK1a substrate protein remaining % (CK1α): A (0% ≤ substrate protein remaining % ≤ 80%)
- IKZF2 substrate protein remaining % (IKZF2): A (0% ≤ substrate protein remaining % ≤ 80%)
- GSPT1 substrate protein remaining % (GSPT1): A (0% ≤ substrate protein remaining % ≤ 80%)
- IC50 (CAL-62): 1 to 5 nM
- IKZF 1 substrate protein remaining % (IKZF1): A (0% ≤ substrate protein remaining % ≤ 80%)
- IC50 (MGC803): 10 to 50 nM
- Weel substrate protein remaining % (WEE1): A (0% ≤ substrate protein remaining % ≤ 80%)
- IC50 [1]: 500 to 1000 nM
- IC50 (TMD8): 10 to 50 nM
- IC50 (Vcap): 1 to 5 nM
- IKZF3 substrate protein remaining % (IKZF3): A (0% ≤ substrate protein remaining % ≤ 80%)
- IC50 (Jurkat): 1 to 5 nM
- IC50 (CCRF-CEM): 1 to 5 nM

SMILES: O=C1CCC(N2Cc3cc(CN4CCN(c5cccc(C(F)(F)F)n5)CC4)ccc3C2=O)C(=O)N1 (centres unmarked) [GT-04432, 3-(1-oxo-5-((4-(6-(trifluoromethyl)pyridin-2-yl)piperazin-1-yl)methyl)isoindolin-2-yl)piperidine-2,6-dione]
- IC50 (SW620): 100 to 500 nM
- CK1a substrate protein remaining % (CK1α): B (80%< substrate protein remaining %≤ 100%)
- IKZF2 substrate protein remaining % (IKZF2): A (0% ≤ substrate protein remaining % ≤ 80%)
- GSPT1 substrate protein remaining % (GSPT1): A (0% ≤ substrate protein remaining % ≤ 80%)
- IC50 (CAL-62): 10 to 50 nM
- IKZF 1 substrate protein remaining % (IKZF1): A (0% ≤ substrate protein remaining % ≤ 80%)
- IC50 (MGC803): 100 to 500 nM
- Weel substrate protein remaining % (WEE1): A (0% ≤ substrate protein remaining % ≤ 80%)
- IC50 (NCI-H1975): 100 to 500 nM
- IC50 [1]: 500 to 1000 nM
- IC50 [2]: 5 to 10 nM
- IC50 (MM.1R): 5 to 10 nM
- IC50 (Vcap): 10 to 50 nM
- IC50 [3]: 500 to 1000 nM
- IKZF3 substrate protein remaining % (IKZF3): A (0% ≤ substrate protein remaining % ≤ 80%)
- IC50 (Jurkat): 1 to 5 nM
- IC50 (CCRF-CEM): 5 to 10 nM

SMILES: Cc1ccc(Cl)cc1N1CCN(Cc2ccc3c(c2)CN(C2CCC(=O)NC2=O)C3=O)CC1 (centres unmarked) [GT-04440, 3-(5-((4-(5-chloro-2-methylphenyl)piperazin-1-yl)methyl)-1-oxoisoindolin-2-yl)piperidine-2,6-dione]
- IC50 (SW620): 500 to 1000 nM
- CK1a substrate protein remaining % (CK1α): A (0% ≤ substrate protein remaining % ≤ 80%)
- IKZF2 substrate protein remaining % (IKZF2): A (0% ≤ substrate protein remaining % ≤ 80%)
- GSPT1 substrate protein remaining % (GSPT1): A (0% ≤ substrate protein remaining % ≤ 80%)
- IC50 (CAL-62): 10 to 50 nM
- IKZF 1 substrate protein remaining % (IKZF1): A (0% ≤ substrate protein remaining % ≤ 80%)
- IC50 (MGC803): 500 to 1000 nM
- Weel substrate protein remaining % (WEE1): A (0% ≤ substrate protein remaining % ≤ 80%)
- IC50 (NCI-H1975): 500 to 1000 nM
- IC50 [1]: 500 to 1000 nM
- IC50 [2]: 5 to 10 nM
- IC50 (MM.1R): 10 to 50 nM
- IC50 (Vcap): 50 to 100 nM
- IC50 [3]: 500 to 1000 nM
- IKZF3 substrate protein remaining % (IKZF3): A (0% ≤ substrate protein remaining % ≤ 80%)
- IC50 (Jurkat): 10 to 50 nM
- IC50 (CCRF-CEM): 10 to 50 nM

SMILES: COc1cccc(N2CCN(Cc3ccc4c(c3)CN(C3CCC(=O)NC3=O)C4=O)CC2)c1 (centres unmarked) [GT-04448, 3-(5-((4-(3-methoxyphenyl)piperazin-1-yl)methyl)-1-oxoisoindolin-2-yl)piperidine-2,6-dione]
- IC50 (SW620): 100 to 500 nM
- CK1a substrate protein remaining % (CK1α): A (0% ≤ substrate protein remaining % ≤ 80%)
- IKZF2 substrate protein remaining % (IKZF2): A (0% ≤ substrate protein remaining % ≤ 80%)
- GSPT1 substrate protein remaining % (GSPT1): A (0% ≤ substrate protein remaining % ≤ 80%)
- IC50 (CAL-62): 10 to 50 nM
- IKZF 1 substrate protein remaining % (IKZF1): A (0% ≤ substrate protein remaining % ≤ 80%)
- IC50 (MGC803): 500 to 1000 nM
- Weel substrate protein remaining % (WEE1): A (0% ≤ substrate protein remaining % ≤ 80%)
- IC50 (NCI-H1975): 100 to 500 nM
- IC50 [1]: 1000 to 1500 nM
- IC50 [2]: 10 to 50 nM
- IC50 (MM.1R): 10 to 50 nM
- IC50 (Vcap): 50 to 100 nM
- IC50 [3]: 500 to 1000 nM
- IKZF3 substrate protein remaining % (IKZF3): A (0% ≤ substrate protein remaining % ≤ 80%)
- IC50 (Jurkat): 10 to 50 nM
- IC50 (CCRF-CEM): 10 to 50 nM

SMILES: O=C1CCC(N2Cc3cc(CN4CCC(c5ccccc5)CC4)ccc3C2=O)C(=O)N1 (centres unmarked) [GT-04465, 3-(1-oxo-5-((4-phenylpiperidin-1-yl)methyl)isoindolin-2-yl)piperidine-2,6-dione]
- IC50 (SW620): 100 to 500 nM
- CK1a substrate protein remaining % (CK1α): A (0% ≤ substrate protein remaining % ≤ 80%)
- IKZF2 substrate protein remaining % (IKZF2): A (0% ≤ substrate protein remaining % ≤ 80%)
- GSPT1 substrate protein remaining % (GSPT1): A (0% ≤ substrate protein remaining % ≤ 80%)
- IC50 (CAL-62): 10 to 50 nM
- IKZF 1 substrate protein remaining % (IKZF1): A (0% ≤ substrate protein remaining % ≤ 80%)
- IC50 (MGC803): 100 to 500 nM
- Weel substrate protein remaining % (WEE1): A (0% ≤ substrate protein remaining % ≤ 80%)
- IC50 (NCI-H1975): 500 to 1000 nM
- IC50 [1]: 1000 to 1500 nM
- IC50 [2]: 10 to 50 nM
- IC50 (MM.1R): 10 to 50 nM
- IC50 (Vcap): 50 to 100 nM
- IKZF3 substrate protein remaining % (IKZF3): A (0% ≤ substrate protein remaining % ≤ 80%)
- IC50 (Jurkat): 10 to 50 nM
- IC50 (CCRF-CEM): 10 to 50 nM

SMILES: O=C1CCC(N2Cc3cc(CN4CCC(c5ccc(Cl)cc5)CC4)ccc3C2=O)C(=O)N1 (centres unmarked) [GT-04469, 3-(5-((4-(4-chlorophenyl)piperidin-1-yl)methyl)-1-oxoisoindolin-2-yl)piperidine-2,6-dione]
- IC50 (SW620): 500 to 1000 nM
- CK1a substrate protein remaining % (CK1α): A (0% ≤ substrate protein remaining % ≤ 80%)
- IKZF2 substrate protein remaining % (IKZF2): A (0% ≤ substrate protein remaining % ≤ 80%)
- GSPT1 substrate protein remaining % (GSPT1): A (0% ≤ substrate protein remaining % ≤ 80%)
- IC50 (CAL-62): 10 to 50 nM
- IKZF 1 substrate protein remaining % (IKZF1): A (0% ≤ substrate protein remaining % ≤ 80%)
- IC50 (MGC803): 500 to 1000 nM
- Weel substrate protein remaining % (WEE1): A (0% ≤ substrate protein remaining % ≤ 80%)
- IC50 [1]: 500 to 1000 nM
- IC50 [2]: 10 to 50 nM
- IC50 (MM.1R): 10 to 50 nM
- IC50 (Vcap): 50 to 100 nM
- IKZF3 substrate protein remaining % (IKZF3): A (0% ≤ substrate protein remaining % ≤ 80%)
- IC50 (Jurkat): 10 to 50 nM
- IC50 (CCRF-CEM): 5 to 10 nM
